Literature values, collected in patent US10589003B2, “Methods for coating surfaces with antimicrobial agents” (The Board of Regents of the University of Texas System, priority 2005, dated 2020).

System: Pseudomonas aeruginosa
Details: agent on its own; gentian violet after impregnating polymer surfaces incl. polyvinylchloride

SMILES	activity against Pseudomonas aeruginosa
CN(C)c1ccc(C(=C2C=CC(=[N+](C)C)C=C2)c2ccc(N(C)C)cc2)cc1 [gentian violet]	no activity
[H]/N=C(\N/C(=N/[H])NCCCCCCNC(=N)NC(=N)Nc1ccc(Cl)cc1)Nc1ccc(Cl)cc1 [chlorhexidine]	not highly active
